Key:
[1] = Pharmacokinetic study in SD rats; format: in vivo; conditions: for AUC(0-inf) / half-life / Cmax / Tmax / bioavailability: rat
Experimental: Experimental Example 2: Pharmacokinetic study of compounds in SD rats
Experimental animals: SD rats, male, 6-8 weeks old.
(§1) Compound preparation: 5% (final preparation volume) of DMSO was added to dissolve the test compound, and then 10% (final preparation volume) of Cremophor EL and 85% Saline were sequentially added.
(§2) Experimental design: The test compounds were administered to SD rats as a single dose via intravenous and oral administration, respectively (injection: 2 mg/kg; oral administration: 10 mg/kg; n = 3). The injection group was given free access to food and water. The oral group was fasted overnight (> 12 h) with free access to water, and was fed 4 h after administration. Blood samples were collected from the jugular vein of SD rats at the following time points: 5 min, 15 min, 0.5 h, 1 h, 2 h, 4 h, 8 h, and 24 h after injection administration; 15 min, 0.5 h, 1 h, 2 h, 4 h, 6 h, 8 h, and 24 h after oral administration. The collected blood samples were anticoagulated, placed in an ice bath, and then centrifuged at 6000 g for 5 min to separate plasma. The plasma samples were stored at -70 °C for analysis.
Sample monitoring: The concentrations of the designated compound drugs in plasma were determined by the LC-MS/MS method; the main pharmacokinetic parameters were calculated using the Winnolin 8.3 non-compartmental model.

Nav1.8 channels = molecular target: T1, Nav1.8 channels (Homo sapiens, UniProt Q9Y5Y9); experiment: Manual patch-clamp, current of stably overexpressed Nav1.8 channels (resting state voltage program); format: cell-based; conditions: for inhibition at 0.01 µM: concentration of 10 nM; for inhibition at 0.01 µM / inhibition at 0.001 µM: read-out: Inhibition rate %; for inhibition at 0.001 µM: concentration of 1 nM
T1 construct: expressed in transfected cells
Summary of the method: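 Whole-cell manual patch clamp on cells stably overexpressing Nav1.8, held at -120 mV and stepped to 0 mV for 50 ms every 20 s (resting-state protocol). Compounds were perfused in ascending concentrations, each for 5 min or until stable; block of peak current was calculated at steady state.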

[2] = Pharmacokinetic study in ICR mice; format: in vivo; conditions: male, mouse, plasma
Experimental: Experimental Example 3: Pharmacokinetic study of compounds in ICR mice
(§3) Experimental animals: ICR mice, male, 6-8 weeks old.
as §1
as §2, with “The” for “Experimental design: The test compounds were administered to SD rats as a single dose via intravenous and oral administration, respectively (injection: 2 mg/kg; oral administration: 10 mg/kg; n = 3). The”, “of ICR mice” for “of SD rats”, “centrifuged” for “centrifuged at 6000 g”, “plasma was” for “plasma samples were”
Sample test: The concentrations of the designated compound drugs in plasma were determined by the LC-MS/MS method; the main pharmacokinetic parameters were calculated using the Winnolin 8.3 non-compartmental model. Pharmacokinetic test results of some compounds of the present disclosure in ICR mice

[3] = Tissue distribution study (dorsal root ganglia) in ICR mice; format: in vivo; conditions: male, mouse, oral administration 20 mg/kg
Experimental: Experimental Example 4: Tissue distribution study of compounds in ICR mice
as §3, §1
Experimental design: The test compounds were administered to ICR mice as a single dose via oral administration (20 mg/kg; n = 3, 3 time points). Blood samples were collected at 0.25 h, 2 h, and 12 h after oral administration, followed by sacrifice of the animals. Dorsal root ganglia (DRG) were collected, rinsed with ice-cold normal saline to remove residual blood, blotted dry with absorbent paper, and stored at -70 °C for analysis.
Sample test: The concentrations of the compound drugs in dorsal root ganglia were determined by the LC-MS/MS method.

formalin pain model = experiment: Rat formalin pain model; format: in vivo, SD rats; conditions: for Number of pain responses 0 min / Number of pain responses 10 min / Number of pain responses 15 min / Number of pain responses 30 min / Number of pain responses 40 min / Number of pain responses 50 min / Number of pain responses 60 min: SD rats, Mean + SD, n = 10; for analgesic activity in the first and second phases: rat formalin pain model, first phase immediately after injection, second phase about 15-20 min after
Experimental: Experimental Example 10: Pharmacodynamic effect study of compounds in rat formalin pain model
Experimental animals: SD rats, male, 180-200 g.
(§4) Compound preparation: 5% (final preparation volume) of DMSO was added to dissolve the test compound, and then 10% (final preparation volume) of Cremophor EL and 85% Saline were sequentially added; an appropriate amount of Etoricoxib was weighed, 5% (final preparation volume) of DMSO was added to dissolve the test compound, and then 5% (final preparation volume) of HS-15 and 90% Saline were sequentially added; the tramadol injection was diluted with normal saline to the desired concentration.
Each group consisted of 10 animals, and 50 µL of a 5% formalin solution was injected using a microsyringe into the right plantar region.
2. Administration and test
Based on different pharmacokinetic properties of the drugs, the administration was performed at 0 min, 60 min, and 120 min before modeling. After injection of the formalin, the number of pain responses in the rats was observed. […] Spontaneous pain responses were observed once every 5 min, and the number of pain responses in the rats within 1 min was counted, with a total observation duration of 60 min. Inhibition rate = (number of pain responses in control group - number of pain responses in administration group)/number of pain responses in control group × 100%.
Table 12. Administration information of compounds of the present disclosure in rat formalin model

[4] = test system: acetic acid writhing model; experiment: Mouse acetic acid writhing model; format: in vivo, ICR mice; conditions: ICR mice, Dose 20 mg/kg, 60 min before 0.8% acetic acid i.p., 30 min observation; Mean + SD, n = 10
Experimental: Experimental Example 11: Pharmacodynamic effect study of compounds in mouse acetic acid writhing model
Experimental animals: ICR mice, male, 20-24 g.
as §4, with “added.” for “added; the tramadol injection was diluted with normal saline to the desired concentration.”
• 1. The mice were randomly grouped based on the body weight for model establishment, with 10 animals per group. A 0.8% (v/v) acetic acid solution was intraperitoneally injected at an injection volume of 10 mL/kg. • 2. Administration and test
Administration was performed 60 min before modeling. After the acetic acid solution was injected, the number of writhing responses in mice was observed. […] The number of writhing responses was observed and recorded during two intervals: 0-15 min and 15-30 min, with a total observation duration of 30 min. Inhibition rate = (number of writhing responses in control group - number of writhing responses in administration group)/number of writhing responses in control group × 100%. The model control group was given normal saline, the positive control group 1 was given etoricoxib at 20 mg/kg, the positive control group 2 was given VX-548 at 50 mg/kg, and the remaining groups were given the compounds of the present disclosure according to the administration doses in the table below.

[5] = in vivo, Oral administration, 10 mg/kg
[6] = male, plasma, Oral administration, 10 mg/kg
[7] = male, plasma, intravenous, Injection, 2 mg/kg
[8] = 30 mg/kg p.o. 60 min before 5% formalin
[9] = 10 mg/kg i.v. immediately before 5% formalin

T1 sequence (Q9Y5Y9 whole entry): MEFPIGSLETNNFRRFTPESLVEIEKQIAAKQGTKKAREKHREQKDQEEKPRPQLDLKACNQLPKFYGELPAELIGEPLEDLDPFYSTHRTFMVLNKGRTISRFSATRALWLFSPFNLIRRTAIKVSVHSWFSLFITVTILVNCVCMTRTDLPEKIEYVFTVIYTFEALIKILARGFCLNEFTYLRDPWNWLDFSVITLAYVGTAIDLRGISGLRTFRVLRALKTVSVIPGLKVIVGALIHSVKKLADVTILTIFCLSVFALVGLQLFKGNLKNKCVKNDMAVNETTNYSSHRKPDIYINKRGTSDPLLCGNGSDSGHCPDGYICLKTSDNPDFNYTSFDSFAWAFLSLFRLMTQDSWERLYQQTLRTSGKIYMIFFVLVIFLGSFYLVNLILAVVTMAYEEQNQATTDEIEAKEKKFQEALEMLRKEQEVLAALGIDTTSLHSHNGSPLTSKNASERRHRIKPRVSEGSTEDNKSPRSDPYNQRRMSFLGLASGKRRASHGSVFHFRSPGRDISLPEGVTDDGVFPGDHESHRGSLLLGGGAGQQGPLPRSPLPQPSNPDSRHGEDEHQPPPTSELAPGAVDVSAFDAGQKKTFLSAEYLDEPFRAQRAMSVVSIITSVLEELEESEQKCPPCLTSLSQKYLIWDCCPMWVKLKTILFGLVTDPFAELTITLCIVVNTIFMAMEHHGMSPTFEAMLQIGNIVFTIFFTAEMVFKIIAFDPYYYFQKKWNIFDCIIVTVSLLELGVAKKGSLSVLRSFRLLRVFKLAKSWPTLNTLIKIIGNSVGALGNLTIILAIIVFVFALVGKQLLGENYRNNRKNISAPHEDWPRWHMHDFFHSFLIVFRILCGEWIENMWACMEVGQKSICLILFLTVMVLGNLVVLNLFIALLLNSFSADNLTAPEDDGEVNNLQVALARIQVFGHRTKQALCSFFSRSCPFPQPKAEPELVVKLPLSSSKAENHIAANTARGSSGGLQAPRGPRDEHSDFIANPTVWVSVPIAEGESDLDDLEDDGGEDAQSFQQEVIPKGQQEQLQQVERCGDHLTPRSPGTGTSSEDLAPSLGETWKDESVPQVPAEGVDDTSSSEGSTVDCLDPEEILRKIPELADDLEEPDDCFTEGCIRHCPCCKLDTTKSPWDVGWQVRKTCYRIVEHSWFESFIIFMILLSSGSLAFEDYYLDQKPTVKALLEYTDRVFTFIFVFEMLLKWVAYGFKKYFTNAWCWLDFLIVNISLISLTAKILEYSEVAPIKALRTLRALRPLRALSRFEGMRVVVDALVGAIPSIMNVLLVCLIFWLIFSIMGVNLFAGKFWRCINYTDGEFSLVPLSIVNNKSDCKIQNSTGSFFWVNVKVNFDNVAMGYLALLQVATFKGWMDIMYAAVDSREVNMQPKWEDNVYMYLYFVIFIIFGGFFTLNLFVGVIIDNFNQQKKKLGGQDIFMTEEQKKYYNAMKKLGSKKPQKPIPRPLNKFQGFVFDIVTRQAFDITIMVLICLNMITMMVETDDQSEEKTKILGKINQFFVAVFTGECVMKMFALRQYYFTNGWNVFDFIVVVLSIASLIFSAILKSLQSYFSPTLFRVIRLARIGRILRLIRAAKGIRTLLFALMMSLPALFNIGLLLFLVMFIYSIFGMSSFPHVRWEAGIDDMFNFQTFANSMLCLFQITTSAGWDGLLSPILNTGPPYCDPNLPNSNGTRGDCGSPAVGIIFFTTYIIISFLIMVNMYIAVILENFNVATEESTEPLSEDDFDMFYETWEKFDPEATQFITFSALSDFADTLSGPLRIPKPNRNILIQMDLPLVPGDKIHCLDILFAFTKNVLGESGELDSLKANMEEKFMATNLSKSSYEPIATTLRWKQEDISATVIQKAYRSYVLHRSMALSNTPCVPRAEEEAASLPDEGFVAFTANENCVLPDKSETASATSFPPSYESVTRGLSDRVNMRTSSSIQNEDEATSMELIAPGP

SMILES: COc1c(C2C(C(=O)Nc3ccnc(C(N)=O)c3)OC(C)(C(F)(F)F)C2C)ccc(F)c1F (racemic) [VX-548(rac)]
- AUC(0-inf) ([1]; in vivo, Injection, 2 mg/kg): 2650 ng·h/mL
- half-life ([1]; in vivo, Injection, 2 mg/kg): 2.64 h
- AUC(0-inf) [1, 5]: 4970 ng·h/mL
- Cmax [1, 5]: 577 ng/mL
- Tmax [1, 5]: 2 h
- bioavailability [1, 5]: 37.6%
- half-life [1, 5]: 3.26 h

SMILES: COc1c(C2CC(C)(C(F)(F)F)SC2C(=O)Nc2ccnc(C(N)=O)c2)ccc(F)c1F (stereo not drawn) [Compound 139, 4-(3-(3,4-difluoro-2-methoxyphenyl)-5-methyl-5-(trifluoromethyl)tetrahydrothiophene-2-carboxamido)picolinamide]
- IC50 (Nav1.8 channels): 0.2 nM
- inhibition at 0.01 µM (Nav1.8 channels): 98.2%
- t1/2, relative to VX-548 [1]: 2 times
- AUC(0-inf) [1, 6]: 9310 ng·h/mL
- Cmax [1, 6]: 724 ng/mL
- Tmax [1, 6]: 4 h
- bioavailability [1, 6]: 48.5%
- half-life [1, 6]: 6.29 h
- AUC(0-inf) [1, 7]: 3840 ng·h/mL
- half-life [1, 7]: 4.86 h
- exposure level after oral administration, relative to VX-548 ([1]; oral administration): 2 times

SMILES: COc1c([C@@H]2C[C@](C)(C(F)(F)F)S[C@H]2C(=O)Nc2ccc3nnnn3c2)ccc(F)c1F [Compound 202-A, (2R,3S,5R)-3-(3,4-difluoro-2-methoxyphenyl)-5-methyl-N-(tetrazolo[1,5-a]pyridin-6-yl)-5-(trifluoromethyl)tetrahydrothiophene-2-carboxamide]
- inhibition at 0.001 µM (Nav1.8 channels): 86.9%
- AUC(0-inf) ([2]; Oral administration, 10 mg/kg): 12500 ng·h/mL
- AUC(0-inf) ([2]; iv, Injection (i.v.), 2 mg/kg): 2050 ng·h/mL
- concentration at 0.25 h [3]: 710 ng/g
- concentration at 2 h [3]: 7200 ng/g
- concentration at 12 h [3]: 2720 ng/g

SMILES: COc1c([C@@H]2C[C@](C)(C(F)(F)F)S[C@H]2C(=O)Nc2cccc(S(N)(=O)=O)c2)ccc(F)c1F [Compound 223-A, (2R,3S,5R)-3-(3,4-difluoro-2-methoxyphenyl)-5-methyl-N-(3-sulfamoylphenyl)-5-(trifluoromethyl)tetrahydrothiophene-2-carboxamide]
- IC50 (Nav1.8 channels): 0.02 nM
- AUC(0-inf) ([2]; Oral administration (p.o.), 20 mg/kg): 50600 ng·h/mL
- AUC(0-inf) ([2]; iv, Injection (i.v.), 2 mg/kg): 7200 ng·h/mL
- concentration at 0.25 h [3]: 511 ng/g
- concentration at 2 h [3]: 2360 ng/g
- concentration at 12 h [3]: 635 ng/g

SMILES: COc1c([C@@H]2C[C@](C)(C(F)(F)F)S[C@H]2C(=O)Nc2ccnc(C#N)c2)ccc(F)c1F [Compound 242-A, (2R,3S,5R)-N-(2-cyanopyridin-4-yl)-3-(3,4-difluoro-2-methoxyphenyl)-5-methyl-5-(trifluoromethyl)tetrahydrothiophene-2-carboxamide]
- inhibition at 0.01 µM (Nav1.8 channels): 97.7%
- AUC(0-inf) ([2]; Oral administration, 10 mg/kg): 18600 ng·h/mL
- AUC(0-inf) ([2]; iv, Injection (i.v.), 2 mg/kg): 3480 ng·h/mL
- concentration at 0.25 h [3]: 597 ng/g
- concentration at 2 h [3]: 6070 ng/g
- concentration at 12 h [3]: 2220 ng/g

SMILES: Cc1ccc(-c2ncc(Cl)cc2-c2ccc(S(C)(=O)=O)cc2)cn1 [Etoricoxib]
- Number of pain responses 0 min (formalin pain model; [8]): 37.5±9.2
- Number of pain responses 10 min (formalin pain model; [8]): 2.0±2.4
- Number of pain responses 15 min (formalin pain model; [8]): 10.1±4.0
- Number of pain responses 30 min (formalin pain model; [8]): 14.3±5.3
- Number of pain responses 40 min (formalin pain model; [8]): 10.8±6.2
- Number of pain responses 50 min (formalin pain model; [8]): 5.1±8.5
- Number of pain responses 60 min (formalin pain model; [8]): 3.3±3.7
- analgesic activity in the first and second phases (formalin pain model): superior analgesic effects in the first and second phases, respectively
- Number of writhing responses [4]: 29 ± 11

SMILES: COc1cccc(C2(O)CCCCC2CN(C)C)c1 (stereo not drawn) [Tramadol]
- Number of pain responses 0 min (formalin pain model; [9]): 31.9±15.0
- Number of pain responses 10 min (formalin pain model; [9]): 1.9±3.0
- Number of pain responses 15 min (formalin pain model; [9]): 4.1±4.4
- Number of pain responses 30 min (formalin pain model; [9]): 12.8±6.7
- Number of pain responses 40 min (formalin pain model; [9]): 13.2±8.1
- Number of pain responses 50 min (formalin pain model; [9]): 8.6±3.6
- Number of pain responses 60 min (formalin pain model; [9]): 9.3±5.1
- analgesic activity in the first and second phases (formalin pain model): superior analgesic effects in the first and second phases, respectively

SMILES: COc1c([C@@H]2C[C@](C)(C(F)(F)F)S[C@H]2C(=O)Nc2ccc(F)c(OS(N)(=O)=O)c2)ccc(F)c1F [a-32-A]
- IC50 (Nav1.8 channels): 0.1 nM
- AUC(0-inf) ([2]; Oral administration, 10 mg/kg): 22900 ng·h/mL
- AUC(0-inf) ([2]; iv, Injection (i.v.), 2 mg/kg): 7390 ng·h/mL

SMILES: COc1c([C@@H]2C[C@](C)(C(F)(F)F)S[C@H]2C(=O)Nc2ccc(F)c(/C=C(\C#N)C(N)=O)c2)ccc(F)c1F [a-89-A, (2R,3S,5R)-N-(3-((E)-3-amino-2-cyano-3-oxopropen-1-yl)-4-fluorophenyl)-3-(3,4-difluoro-2-methoxyphenyl)-5-methyl-5-(trifluoromethyl)tetrahydrothiophene-2-carboxamide]
- inhibition at 0.001 µM (Nav1.8 channels): 51.5%
